From US20160097044A1, “Antimicrobial Enzyme Fusions Reduce Resistance and Kill Intracellular Staphylococcus aureus” (The United States of America, as Represented by the …, priority 2014, published 2016)

Legend:
S. aureus = assay: Murine model of staphylococcal osteomyelitis (femur); type: in vivo, C57BL/6J mice; conditions: 5 mg/kg i.m. at site of infection, twice in 24 h, N=6
Protocol: Neonatal mouse whole calvaria were treated for 4 hours with chimeric peptidoglycan hydrolases or buffer alone, 24 hours post inoculation with GFP-expressing S. aureus. Calvaria were embedded in freeze media, sectioned, and subjected to fluorescence imaging. The image shown is a representative figure for triplicate sections of three separate calvaria. FIG. 8b depicts fluorescence intensity from these sections measured in ImageJ and defined as arbitrary fluorescence standardized to the untreated control. Error bars represent SEM of four replicate experiments. FIG. 8c depicts ex-vivo intracellular S. aureus eradication. Infected calvaria were homogenized and CFU were counted post treatment. Error bars represent SEM. FIG. 8d depicts a murine model of staphylococcal osteomyelitis. C57BL/6J mice were anesthetized and their femurs were surgically exposed. […] The femurs were removed, homogenized, and plated to quantify the bacterial load. […] Asterisks represent statistical significance as determined by one-way ANOVA followed by Tukey's posthoc test.
We utilized a previously described (Marriott, supra) murine model of staphylococcal osteomyelitis that reproduces the clinical and gross pathological phases of inflammatory bone diseases, such as human post-traumatic osteomyelitis. […] Asterisks represent statistical significance as determined by one-way ANOVA followed by Tukey's posthoc test.

TNFα = assay: Murine model of mastitis, TNFα response; type: in vivo, C57BL6/SJL mice; conditions: single 1.25 nmoles intramammary infusion, after challenge
Protocol: FIG. 6a depicts the specific activity of peptidoglycan hydrolase fusion constructs in vitro in a turbidity reduction assay with S. aureus Newbould 305 resuspended in lysis buffer to an OD600nm of 1.0 and treated with 1 μM final concentrations of each peptidoglycan hydrolase. The maximum specific activity for three experiments are represented as an average with SEM error bars. FIG. 6b depicts the bacterial burden in mice with mastitis treated with recombinant peptidoglycan hydrolases. Colony Forming Units (CFUs) from infected murine mammary glands following a single treatment with 50 μl of 25 μM peptidoglycan hydrolase (1.25 nmol). Each data point represents the average of duplicate bacterial platings. The horizontal bars represent the average CFU/mg for each group. FIG. 6c illustrates the TNFα response in mice with mastitis that were treated with peptidoglycan hydrolases. Data represents a minimum of 7 measurements in duplicate. Log TNFα was used for statistical analysis. Single asterisks indicate a significant difference from buffer control (p<0.05); double asterisks indicate a significant difference from the parental enzyme (p<0.05). […]
Statistical analysis: The variables were analyzed as two-factor mixed models with Treatment as the factor and Mouse as random Blocks. […]

[1] = bovine, in vivo; cited from earlier work

Row | Substance | bacterial load in femur compared to no treatment (S. aureus) | reduction of TNFα concentration in the mammary tissue (TNFα) [fold] | treatments after which specific antibodies were detectable [1]
1 | K-L: both LysK lytic domains fused to the N-terminus of lysostaphin; SEQ ID NO:5, protein SEQ ID NO:6 | significantly reduced bacterial load as compared to no treatment | – | –
2 | L: 247 amino acid mature (secreted) lysostaphin, staphylolytic bacteriocin, C-terminal His6 tag; SEQ ID NO:1 [reference compound] | – | > 6 | 18-21 treatments
